*1 amine or outer side, *2 acyl side, *3 side chain or, on linkers, in order; H or OH if unused. Where a SMILES comes first, the peptide text is derived from it. Bridges are numbered along the chain shown (N, C = ends). Roman numbers before positions name the chains, in order. [ ]: non-standard residue; d: D form. Actinocin(9to1) = Cc1c2oc3c(C)ccc(C(=O)[*:1])c3nc-2c(C(=O)[*:2])c(N)c1=O; NMeV = CN[C@H](C(=O)O)C(C)C; Sar = CNCC(=O)O
Experiments:
[1] = test system: wildtype p53; test: DLS detection with PUMA-AuNP nano-dumbbell probes of wtp53-RE binding in anticancer drug treated PonA induced H1299 cell lysates; type: cell-based; settings: drug-treated PonA induced p53 H1299 cell lysate, versus untreated lysate
Source text: To investigate the applicability of the assay in accordance with the present embodiment to cell lysates, the H1299 Ecdysone-Inducible (EI) system for controllable and constitutive expression of p53 in H1299 cells induced by ponasterone A (PonA) was used. Referring to FIG. 7, bar graphs 700, 750 depict cell lysate analysis statistics in accordance with the present embodiment. The bar graph 700 plots size along the y-axis 704 and depicts wildtype p53 cell lysate 710 and three mutant p53 cell lysates: G245S 712, R273H 714 and R175H 716. The p53 null cell lysate (EI) 718, which serves as a negative control, gives negligible size shift from that of the PUMA-AuNP nano-dumbbell probes 720. Remarkably, clear distinctions between cell lysates with wtp53 710 and the DNA contact mutant retaining native structure (R273H) 714, the weakly stabilized mutant (G245S) 712 and the globally denatured mutant (R175H) 716 can be observed in the bar graph 700. Thus, it can be seen from the analytical results in the graph 700 that the bioassay in accordance with the present embodiment is not only sensitive and selective in the context of purified proteins but also applicable to highly complex biological samples.
Referring to FIG. 7B, the bar graph 750 plots size along the y-axis 754 and depicts detection of wildtype p53 in PonA induced p53 cell lysates 760 versus a […] cell lysate (EI) 762 (used together with the PUMA-AuNP nano-dumbbell probes 763 as a negative control), and an anticancer drug including ActD-treated 764, Dox-treated 766, and Etoposide-treated cell lysate 768.

[2] = biological target: T1, mutant p53 (R175H) (Homo sapiens, UniProt P04637, R175H); test: Mutant p53 reactivation drug screening in PonA induced H1299 cells, DLS with PUMA-AuNP nano-dumbbell probes; type: cell-based
T1 construct: expressed in transfected cells; host or cells: PonA induced H1299 cells
Experimental: (§1) The ability to clearly distinguish wildtype p53 from mutant p53 in cell lysates provides the potential of the assay in accordance with the present embodiment for screening drugs that can effectively reactivate mutant p53 directly in cells and recovered the biological samples from cell lysates for detection. FIG. 9 depicts a schematic diagram 900 showing the process of mutant reactivation drug screening. Incubation of drug with live cancer cells expressing mutant p53 for reactivation is performed 910 (Step 1). The drug treated cells are then chemically lysed 920 (Step 2). The resultant cell lysates are next subjected 930 to incubation with p53-RE functionalized AuNP nano-dumbbell probes (Step 3). The obtained DLS readout allow evaluation of whether the drug applied has successfully reactivated mutant p53 to restore its binding affinity to RE. Failure in p53 reactivation will give rise to no change in the position of the DLS signal in accordance with the present embodiment.
(§2) Referring back to Step 1, drugs to be tested are first incubated 912 with live cancer cells expressing mutp53 proteins. Drugs are then uptaken 914 by the cells and interact with the mutp53 proteins. The drug treated cancer cells are subsequently lysed at Step 2 (920) to obtain crude cell lysates. These cell lysates are incubated with RE-AuNP probes and DLS is finally employed to evaluate the efficiency of mutp53 reactivation 932. If the reactivation is successful 934, the reactivated p53 protein will have a restored binding toward the RE, thus leading to increase in the diameter of the p53 RE-AuNP probes as measured 936 by DLS. In contrast, failure in reactivation 938 will not restore the binding of mutp53 protein to the RE sequence on the nano-dumbbell probes, thus no change in DLS signal is measured 940. Thus, the bioassay in accordance with the present embodiment is able to evaluate the extent of mutant reactivation by comparing the DLS signal obtained with the wtp53 binding to RE. The effective concentration of drugs for reactivation can also be determined by performing a series of concentration-dependent experiments during cell reactivation
The bar graphs 1000, 1050 plot particle size along the y-axis 1004, 1054 and depict screening of mutant reactivation drugs.

[3] = biological target: T2, mutant p53 (R273H) (Homo sapiens, UniProt P04637, R273H); test: as above; type: cell-based
T2 construct: expressed in transfected cells; host or cells: PonA induced H1299 cells
Experimental: as §1, §2
However, the NSC drug has no effect at either low concentrations 1068 or high concentrations 1070 due to its specificity only to R175H mutant.

[4] = test system: wtp53 in HCT116 cells; test: DLS detection with PUMA-AuNP nano-dumbbell probes of wtp53 expression level in drug treated HCT116 cell lysates; type: cell-based; settings: HCT116 cell lysate after Mdm2 inhibitor treatment, mixed with PUMA-AuNP probes
Source text: Referring to FIG. 8, detection of wtp53 expression level in drug treated HCT116 cell lysates in accordance with the present embodiment is depicted in a bar graph 800. Besides the H1299 Ecdysone-Inducible cell lines, the effect of Mdm2 inhibitors such as nutlin 810, pm2 812, and vip82 814 on HCT116 cells was investigated. These inhibitors could inhibit Mdm2 targeted wtp53 degradation so that the wtp53 protein level in the HCT116 cell lysate will increase with the concentration of the drug applied. […] However, the extent of size increase is not as high as what was observed upon anticancer drug treatment presented. One possible explanation is that PUMA-AuNP nano-dumbbell probes are sensitive to detect activated wtp53 with enhanced binding to RE, whereas the over-expression of wtp53 may not enhance DNA binding.

[5] = biological target: p53 (Homo sapiens, UniProt P04637); test: Dissociation constant (KD) of p53 for DNA promoter sequences (Table 1); type: binding; settings: concentration of p53 for 50% of the DNA to be bound; free dsDNA sequence
Source text: As aforestated, the p53 protein is a transcription factor which will bind specifically to DNA that contains RE sequences. In nature, wildtype p53 protein will bind to many promoter sequences and subsequently activate a wide range of genes for DNA repair, cell cycle arrest, apoptosis and its own degradation. As shown hereinabove, the bioassay in accordance with the present embodiment can be used for DNA selectivity study by conjugating different RE sequences to the AuNPs. However, it would be technically tedious to carry out conjugation for each DNA sequence and then screen for the binding affinity of a large number of promoter sequences. Therefore, a convenient competition assay which requires only one set of p53 RE-linked AuNPs has been designed in accordance with the present embodiment to evaluate the binding affinity of p53 protein to various promoter sequences listed in Table 1. This competition assay further allows the identification of the specific downstream pathway that is triggered upon p53 activation or reactivation, providing crucial information on the drug validation and outcome of the drug action.
The dissociation constant (KD) is defined as the concentration of p53 for 50% of the DNA to be bound. The lower the KD value, the stronger the binding affinity between wtp53 and the tested free DNA sequence. Thus, a smaller change in the size of the complex bound probes is expected due to the competitive binding of wtp53 between the free DNAs and conjugated RE sequences on AuNPs. […] Application of this assay to the activated or reactivated p53 proteins enables determination of which promoter sequence binds strongly and consequently identifies its downstream targets (apoptosis, cell cycle arrest or DNA repair).

[6] = high concentrations (++): COTI-2 1 μM, Prima-1^met 20 μM, NSC 3 μM
[7] = low concentrations (+): NSC 0.3 μM

Cc1c2oc3c(C)ccc(C(=O)N[C@@H]4C(=O)N[C@H](C(C)C)C(=O)N5CCC[C@H]5C(=O)N(C)CC(=O)N(C)[C@@H](C(C)C)C(=O)O[C@@H]4C)c3nc-2c(C(=O)N[C@@H]2C(=O)N[C@H](C(C)C)C(=O)N3CCC[C@H]3C(=O)N(C)CC(=O)N(C)[C@@H](C(C)C)C(=O)O[C@@H]2C)c(N)c1=O [ActD, actinomycin D] (I: T[dV]P[Sar][NMeV] / II: T[dV]P[Sar][NMeV]; ester I:1-I:C, II:1-II:C; linker I:N-II:N via Actinocin(9to1)) was tested, and the “activation of wtp53 binding to the RE (DLS particle diameter of PUMA-AuNP probes)” value (“activation of wtp53 binding to the RE” below) [1] was “larger diameter”.

In the case of S=C(N/N=C1\CCCc2cccnc21)N1CCN(c2ccccn2)CC1 [COTI-2], the “reactivation of mutant p53 (R175H) to bind with PUMA-AuNP probes” value (“reactivation of mutant p53 (R175H)” for short) [2, 6] is reported as “successful reactivation”, the “reactivation of mutant p53 (R175H)” value [2, 7] is reported as “not at low concentrations” and the “reactivation of mutant p53 (R273H) to bind with PUMA-AuNP probes” value (from here on “reactivation of mutant p53 (R273H)”) [3, 6] is reported as “successful reactivation”. The “reactivation of mutant p53 (R273H)” value [3, 7] was “not at low concentrations”.

With COc1cccc2c1C(=O)c1c(O)c3c(c(O)c1C2=O)C[C@@](O)(C(=O)CO)C[C@@H]3O[C@H]1C[C@H](N)[C@H](O)[C@H](C)O1 [Dox, doxorubicin] the “activation of wtp53 binding to the RE” value [1] was “larger diameter”.

In the case of COc1cc([C@@H]2c3cc4c(cc3[C@@H](O[C@@H]3O[C@@H]5CO[C@@H](C)O[C@H]5[C@H](O)[C@H]3O)[C@H]3COC(=O)[C@H]23)OCO4)cc(OC)c1O [Etoposide, etoposide], the “activation of wtp53 binding to the RE” value [1] is reported as “larger diameter”.

CC(=NNC(=S)N1CC2CCC(CC2)C1)c1ccccn1 [NSC] was tested, and the “reactivation of mutant p53 (R175H)” value [2, 6] was “shows effect”, the “reactivation of mutant p53 (R175H)” value [2, 7] was “shows effect” and the “reactivation of mutant p53 (R273H)” value [3, 6] was “no effect”. The “reactivation of mutant p53 (R273H)” value [3, 7] was “no effect”.

In the case of COCC1(CO)C(=O)C2CCN1CC2 (stereo not shown) [Prima-1^met], the “reactivation of mutant p53 (R175H)” value [2, 6] is reported as “successful reactivation”, the “reactivation of mutant p53 (R175H)” value [2, 7] is reported as “not at low concentrations” and the “reactivation of mutant p53 (R273H)” value [3, 6] is reported as “successful reactivation”. For the same molecule, the “reactivation of mutant p53 (R273H)” value [3, 7] was “not at low concentrations”.

For COc1ccc(C2=NC(c3ccc(Cl)cc3)C(c3ccc(Cl)cc3)N2C(=O)N2CCNC(=O)C2)c(OC(C)C)c1 (stereo not shown) [nutlin], the “wtp53 level in cell lysate detected by DLS size increase” value [4] was “increased wtp53 level”.

Work on “Bax a: p53 promoter dsDNA sequence, gene function apoptosis (sense TCATTCACAAGTTAGAGACAAGCCTAGCTC; antisense GAGCTAGGCTTGTCTCTAACTTGTGAATGA; DNA, backbone not given here)” yielded a Kd [5] of 73 ± 33 nM.

Molecule “GADD45: p53 promoter dsDNA sequence, gene function DNA repair (sense ATCATGAACATGTCTAAGCATGCTGAGCTC; antisense GAGCTCAGCATGCTTAGACATGTTCATGAT; DNA, backbone not given here)” has a Kd [5] of 7.7 ± 1.2 nM.

B1: ConA: Artificial consensus p53-binding dsDNA sequence; positive control (nucleic acid)
sense: GTTAGAGGGGCATGTCCGGGCATGTCCGGGCAGA
antisense: CAATCTCCCCGTACAGGCCCGTACAGGCCCGTCT
modifications: chemistry not given here; one strand is listed 3' to 5'
notes: positive control
B1 showed a Kd [5] of 3 nM.
